{
  "source": "paper PMC4120117",
  "about": "(Bioorganic & medicinal chemistry letters, 2014)",
  "system": "three MycP1 variants",
  "assay_type": "biochemical, M. tuberculosis, M. thermoresistible, M. smegmatis",
  "data": [
    {"substance": "HAlaValLysAlaAlaB(OH)2 [Compound 1]", "values": [
      {"measurement": "inhibition (in words)", "value": "poorer inhibition than compound 2"}
    ]}
  ]
}
